Laboratory results reported in BigSolDB 2.1.

Cc1ccc(C(=O)O)cc1
solubility (mole fraction)
Conditions | in acetic acid | in methanol
283.15 K | 0.043 | 0.02
288.15 K | 0.048 | 0.021
293.15 K | 0.053 | 0.023
298.15 K | 0.059 | 0.027
303.15 K | 0.064 | 0.029
308.15 K | 0.07 | 0.033
313.15 K | 0.077 | 0.038
318.15 K | 0.085 | 0.041
323.15 K | 0.095 | 0.047
328.15 K | 0.103 | 0.054
333.15 K | 0.113 | 0.061
